# Experimental data as given in patent US9492499B2, “Peptides having anti-inflammatory properties” (Riptide Bioscience, Inc., priority 2014, dated 2016).
# “Also recorded” adds a separate entry of the source. No end group written: not given here.
# Legend:
# [1] = Tumor growth, MCF-7 non-metastatic breast cancer model in athymic nude mice; assay type: in vivo, mouse
# Method: The polypeptides of the invention were also tested for their effect on tumor growth in a mouse model of non-metastatic breast cancer. MCF-7 human non-metastatic breast cancer cells were cultured at 37° C., 5% CO2 in normal growth media. Cells were harvested at 80% to 90% confluence. Immune compromised athymic nude mice (J:NU) were divided into 2 groups (9 animals per group). All mice were injected with ˜4.5×10^6 MCF-7 cells which had been stained with VIVO Tracker 680 and suspended in 200 μl of PBS/Matrigel mixture. Cells were injected subcutaneously on the dorsal surface of treated animals using a 22 gauge needle fitted with a 500 μl syringe.
# Animals were designated vehicle and peptide treated. The peptide treated animals were treated with the RP-397 polypeptide (SEQ ID NO: 194). Freshly prepared RP-397 peptide was dissolved in sterile saline at a concentration of 100 μM and was used to treat the animals in the peptide group. Vehicle treated animals were injected with saline buffer alone. All treatments were injected into the tumor mass two times weekly for 5 weeks using a 27½ gauge needle fitted with a 1 ml syringe. Animal weights and tumor volumes were measured 3 times weekly and the fluorescence labeling was followed by VIVO Tracker 680 and IVIS Imaging.
# NF-kB = NF-kB activity in 3T3-L1 preadipocyte Nfkb-RE/GFP reporter cells; assay type: cell-based; settings: 0.01 μM peptide, lipopolysaccharide 20 ng/ml, GFP fluorescence
# Method: NF-kB activity was monitored using the a 3T3-L1 preadipocyte cell line stably transformed with a Nfkb-RE/GFP construct, as described in Shen et al. (2013), “Adipocyte reporter assays: Application for identification of anti-inflammatory and antioxidant properties of mangosteen xanthones,” Mol. Nutr. Food Res. 00:1-9, the entire contents of which are incorporated herein by reference. NF-kB expressing adipocyte reporter cells were plated in DMEM in wells of a 24-well plate, at a seeding density of 5×10^4. On the second and third days post-plating, test peptides were individually added to the wells to a final concentration of 0.01 μM. The test peptides included RP-398 (SEQ ID NO: 155), and RP-185 (SEQ ID NO: 123). On day 4 post-plating, lipopolysaccharide was added to the medium to a final concentration of 20 ng/ml. Finally, on day 5 post-plating, the cells were harvested and a fluorescence assay performed to detect GFP expression levels.
# PD-L2 = PD-L2 staining of tumors in transgenic p53/KRAS mice; assay type: in vivo, mouse; settings: 10 mg/kg daily subcu for one week, vs vehicle
# Method: (§1) In one experiment, tumors in transgenic p53/KRAS mice were allowed to grow to approximately […] in volume, and the animals were then treated daily subcu for one week with either vehicle only, or 10 mg/kg RP-182, following which the animals were sacrificed and the tumors resected, formalin-fixed, and stained with antibodies to PD-1 (FIG. 19), PD-L1 and PD-L2 (FIG. 20).
# M2-polarized macrophages = assay: Viable cell count of M2-polarized bone marrow macrophages; assay type: cell-based, mouse; settings: 100 nM, 72 hours
# Method: (§2) Primary bone marrow cells were collected from male C57BL/6J (The Jackson Laboratory, Bar Harbor, Me.). Mouse bone marrow macrophages were differentiated in vitro from the primary bone marrow cells by culturing in Dulbecco's minimal essential medium (DMEM) with 10% FBS and 30 ng/ml murine M-CSF (colony stimulating factor) for 6 days. At day 7, macrophages were plated into 12-well plates and cultured in DMEM (10% FBS) with (i) IL-4 peptide (20 ng/mL), (ii) INF-γ (10 ng/mL), or (iii) neither IL-4 nor INF-γ for 24 hours. After 24 hours, the media was replaced with pure DMEM and the cells were cultured for an additional 48 hours. The resulting macrophages were (i) M2-polarized, (ii) M1-polarized, or (iii) undifferentiated, respectively.
# (§3) A macrophage sample containing approximately 70,000 […] macrophages per ml was incubated for 72 hours with 100 nM RP-182 (SEQ ID NO: 121). […] Thus, the RP-182 had little effect on the viability of M1 macrophages.
# [2] = system: human triple-negative breast cancer cells (MDA-MB-231); assay: Tumor volume, MDA-MB-231 triple-negative breast cancer in nude mice, combination with Gemcitabine; assay type: in vivo, mouse; settings: Gemcitabine+RP-182 cohort, from day 32
# Method: To test this theory, cohorts of immunocompromised (“nude”) mice were injected with ˜5×10^6 human triple-negative breast cancer cells (MDA-MB-231) under the upper left teat. Following this administration, one cohort received only vehicle; two of the cohorts received the chemotherapeutic agent Gemcitabine, at a q4d dose of 40 mg/kg of body weight. One of these cohorts also received RP-182 (SEQ ID NO: 121) at a daily dose of 5 mg/kg body weight; and a fourth cohort received only RP-182 at a daily dose of 5 mg/kg body weight. Beginning on day 32 of the study, in the Gemcitabine+RP-182 cohort, concentrations of RP-182 were increased to 20 mg/kg body weight. Tumor volume was assessed at various time points following initial cell administration (FIG. 21). After 50 days, the mice were sacrificed.
# PD-1 = PD-1 staining of tumors in transgenic p53/KRAS mice; assay type: in vivo, mouse; settings: 10 mg/kg daily subcu for one week, vs vehicle
# Method: as §1
# PD-L1 = PD-L1 staining of tumors in transgenic p53/KRAS mice; assay type: in vivo, mouse; settings: 10 mg/kg daily subcu for one week, vs vehicle
# Method: as §1
# M1-polarized macrophages = assay: Viable cell count of M1-polarized bone marrow macrophages; assay type: cell-based, mouse; settings: 100 nM, 72 hours
# Method: as §2, §3
# [3] = system: undifferentiated macrophages; assay: Viable cell count of undifferentiated bone marrow macrophages; assay type: cell-based, mouse; settings: 100 nM, 72 hours; sample approximately 70,000 per ml
# Method: as §2, §3
sequence,measurement,setting,value
"FAKKFAKKF [RP-397, FAKKFAKKF]",Body Weight After,[1]; after treatment,30.1 g
same,Body Weight Before,[1]; before treatment,25.1 g
FAKKFAKKFK [RP-398],NF-kB expression reduced relative to control cells,NF-kB,approximately 58%
FFKKFFKKFK [RP-185],NF-kB expression reduced relative to control cells,NF-kB,approximately 58%
KFRKAFKRFF [RP-182],PD-L2 expression in tumor,PD-L2,significantly downregulated; also recorded: reduced
same,"viable cell count, M2-polarized macrophages",M2-polarized macrophages,"20,000 cells per ml"
same,increase in tumor volume after RP-182 raised to 20 mg/kg,[2],essentially halted
same,PD-1 expression in tumor,PD-1,significantly downregulated; also recorded: reduced
same,PD-L1 expression in tumor,PD-L1,significantly downregulated; also recorded: reduced
same,"viable cell count, M1-polarized macrophages",M1-polarized macrophages,"68,000 cells per ml"
same,"viable cell count, undifferentiated macrophages",[3],"68,000 cells per ml"
